Experimental data reported in PubChem BioAssay AID1918936 (Molecular Pharmacology Branch, DTP, NCI, 2023).
Several values for one entry are separate records, joined by “and”; a condition that tells them apart may be missing. Identical values can stand only once.

Test system: 349418-098-R-PDC complex spheroid viability
Assay: Anticancer human tumor 349418-098-R-PDC patient-derived lung adenocarcinoma cell line growth inhibition
Conditions: for viability, T/C: stronger effect = lower value
Summary of the method: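 Drug combinations with the LSD1 inhibitor iadademstat tested on tumor cells co-cultured as spheroids with endothelial cells and mesenchymal stem cells. Concentrations descended in half-log increments from clinical Cmax or 10 microM.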

[1] = curve of first compound, second compound 0.1 µM
[2] = curve of first compound, second compound 0.316 µM
[3] = curve of first compound, second compound 1 µM
[4] = curve of first compound, second compound 3.16 µM
[5] = curve of first compound, second compound 10 µM
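Also: spheroids exposed to agents for seven days before readout.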
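For viability, T/C in this document: 100% = DMSO vehicle control wells.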

Nc1ncn(C2CC(O)C(CO)O2)c(=O)n1 (configuration not stated) was tested, and the viability, T/C (compound 0.00316 µM) was 88.2% and 96.1%, the viability, T/C (compound 0.01 µM) was 59% and 91.5% and the viability, T/C (compound 0.0316 µM) was 47.1% and 75.4%. The viability, T/C (compound 0.1 µM) was 32.5% and 45.5%, the viability, T/C (compound 0.316 µM) was 27.8% and 37.1% and the viability, T/C (compound 1 µM) was 23.9% and 27.6%. The IC50 (curve of compound) was 21.3 nM and 89.3 nM.
With CCN(c1cc(-c2ccc(CN3CCOCC3)cc2)cc(C(=O)NCc2c(C)cc(C)[nH]c2=O)c1C)C1CCOCC1 + NC1CCC(NC2CC2c2ccccc2)CC1 the IC50 [1] was greater than 3000 nM, the IC50 [2] was greater than 3000 nM and the IC50 [3] was greater than 3000 nM. The IC50 [4] was greater than 3000 nM, the IC50 [5] was 640 nM and the viability, T/C (second compound 0.1 µM, first compound 0.00949 µM) was 107%. The viability, T/C (second compound 0.1 µM, first compound 0.03 µM) was 93.5%, the viability, T/C (second compound 0.1 µM, first compound 0.0949 µM) was 82.9% and the viability, T/C (second compound 0.1 µM, first compound 0.3 µM) was 70.5%. The viability, T/C (second compound 0.1 µM, first compound 0.949 µM) was 59.3%, the viability, T/C (second compound 0.1 µM, first compound 3 µM) was 60% and the viability, T/C (second compound 0.316 µM, first compound 0.00949 µM) was 99.1%. It also gave a viability, T/C (second compound 0.316 µM, first compound 0.03 µM) of 105%, a viability, T/C (second compound 0.316 µM, first compound 0.0949 µM) of 90.1% and a viability, T/C (second compound 0.316 µM, first compound 0.3 µM) of 77.5%. For the same compound, the viability, T/C (second compound 0.316 µM, first compound 0.949 µM) was 69.3%, the viability, T/C (second compound 0.316 µM, first compound 3 µM) was 62.2% and the viability, T/C (second compound 1 µM, first compound 0.00949 µM) was 106%. For the same compound, the viability, T/C (second compound 1 µM, first compound 0.03 µM) was 88.7%, the viability, T/C (second compound 1 µM, first compound 0.0949 µM) was 98% and the viability, T/C (second compound 1 µM, first compound 0.3 µM) was 75.6%. The viability, T/C (second compound 1 µM, first compound 0.949 µM) was 75.3%, the viability, T/C (second compound 1 µM, first compound 3 µM) was 57% and the viability, T/C (second compound 3.16 µM, first compound 0.00949 µM) was 106%. For the same compound, the viability, T/C (second compound 3.16 µM, first compound 0.03 µM) was 87.6%, the viability, T/C (second compound 3.16 µM, first compound 0.0949 µM) was 81% and the viability, T/C (second compound 3.16 µM, first compound 0.3 µM) was 68.3%. It also gave a viability, T/C (second compound 3.16 µM, first compound 0.949 µM) of 55.6%, a viability, T/C (second compound 3.16 µM, first compound 3 µM) of 59.5% and a viability, T/C (second compound 10 µM, first compound 0.00949 µM) of 79%. The viability, T/C (second compound 10 µM, first compound 0.03 µM) was 91.2%, the viability, T/C (second compound 10 µM, first compound 0.0949 µM) was 64.9% and the viability, T/C (second compound 10 µM, first compound 0.3 µM) was 59.7%. For the same compound, the viability, T/C (second compound 10 µM, first compound 0.949 µM) was 47.4% and the viability, T/C (second compound 10 µM, first compound 3 µM) was 34.5%.
COc1cc(Nc2ncc3c(n2)-c2ccc(Cl)cc2C(c2c(F)cccc2OC)=NC3)ccc1C(=O)O + NC1CC1c1ccc(-c2cccc(O)c2)cc1 gave an IC50 [1] of 26 nM, an IC50 [2] of 69.9 nM and an IC50 [3] of 53.9 nM. It also gave an IC50 [4] of 57.8 nM, an IC50 [5] of 42.9 nM and a viability, T/C (second compound 0.1 µM, first compound 0.00316 µM) of 75.4%. For the same compound, the viability, T/C (second compound 0.1 µM, first compound 0.01 µM) was 53.7%, the viability, T/C (second compound 0.1 µM, first compound 0.0316 µM) was 50.2% and the viability, T/C (second compound 0.1 µM, first compound 0.1 µM) was 48.7%. It also gave a viability, T/C (second compound 0.1 µM, first compound 0.316 µM) of 47.5%, a viability, T/C (second compound 0.1 µM, first compound 1 µM) of 38.7% and a viability, T/C (second compound 0.316 µM, first compound 0.00316 µM) of 74%. For the same compound, the viability, T/C (second compound 0.316 µM, first compound 0.01 µM) was 54.4%, the viability, T/C (second compound 0.316 µM, first compound 0.0316 µM) was 55.4% and the viability, T/C (second compound 0.316 µM, first compound 0.1 µM) was 51%. It also gave a viability, T/C (second compound 0.316 µM, first compound 0.316 µM) of 45.8%, a viability, T/C (second compound 0.316 µM, first compound 1 µM) of 38.2% and a viability, T/C (second compound 1 µM, first compound 0.00316 µM) of 79.1%. The viability, T/C (second compound 1 µM, first compound 0.01 µM) was 54.5%, the viability, T/C (second compound 1 µM, first compound 0.0316 µM) was 51.8% and the viability, T/C (second compound 1 µM, first compound 0.1 µM) was 55.4%. It also gave a viability, T/C (second compound 1 µM, first compound 0.316 µM) of 50.4%, a viability, T/C (second compound 1 µM, first compound 1 µM) of 35.2% and a viability, T/C (second compound 3.16 µM, first compound 0.00316 µM) of 73.2%. It also gave a viability, T/C (second compound 3.16 µM, first compound 0.01 µM) of 47.5%, a viability, T/C (second compound 3.16 µM, first compound 0.0316 µM) of 59.6% and a viability, T/C (second compound 3.16 µM, first compound 0.1 µM) of 47.5%. For the same compound, the viability, T/C (second compound 3.16 µM, first compound 0.316 µM) was 43.7%, the viability, T/C (second compound 3.16 µM, first compound 1 µM) was 31.1% and the viability, T/C (second compound 10 µM, first compound 0.00316 µM) was 62.1%. The viability, T/C (second compound 10 µM, first compound 0.01 µM) was 44.7%, the viability, T/C (second compound 10 µM, first compound 0.0316 µM) was 55.1% and the viability, T/C (second compound 10 µM, first compound 0.1 µM) was 49.1%. The viability, T/C (second compound 10 µM, first compound 0.316 µM) was 34.4% and the viability, T/C (second compound 10 µM, first compound 1 µM) was 25.4%.
